According to ChEMBL document CHEMBL1148832, “Rational design, structure, and biological evaluation of cyclic peptides mimicking the vascular endothelial growth factor” (J Med Chem, 2007):
The source made the active and inactive calls. The calls are words filed in the database; no cut-off is given here. *1 amine or outer side, *2 acyl side, *3 side chain or, on linkers, in order; H or OH if unused. Where a SMILES comes first, the peptide text is derived from it. Bridges are numbered along the chain shown (N, C = ends). [ ]: non-standard residue; d: D form. X1 = O=C([C@H](Cc1cc(=O)oc2cc(O)ccc12)N[*:1])[*:2]; hPhe = N[C@@H](CCc1ccccc1)C(=O)O; β3hE = N[C@@H](CCC(=O)O)CC(=O)O

Key:
[1] = target: Vascular endothelial growth factor receptor 1 (Homo sapiens, UniProt P17948); test: Displacement of biotinylated VEGF165 from human recombinant VEGFR1 by chemiluminescent assay
Chain of Vascular endothelial growth factor receptor 1 (P17948 whole entry): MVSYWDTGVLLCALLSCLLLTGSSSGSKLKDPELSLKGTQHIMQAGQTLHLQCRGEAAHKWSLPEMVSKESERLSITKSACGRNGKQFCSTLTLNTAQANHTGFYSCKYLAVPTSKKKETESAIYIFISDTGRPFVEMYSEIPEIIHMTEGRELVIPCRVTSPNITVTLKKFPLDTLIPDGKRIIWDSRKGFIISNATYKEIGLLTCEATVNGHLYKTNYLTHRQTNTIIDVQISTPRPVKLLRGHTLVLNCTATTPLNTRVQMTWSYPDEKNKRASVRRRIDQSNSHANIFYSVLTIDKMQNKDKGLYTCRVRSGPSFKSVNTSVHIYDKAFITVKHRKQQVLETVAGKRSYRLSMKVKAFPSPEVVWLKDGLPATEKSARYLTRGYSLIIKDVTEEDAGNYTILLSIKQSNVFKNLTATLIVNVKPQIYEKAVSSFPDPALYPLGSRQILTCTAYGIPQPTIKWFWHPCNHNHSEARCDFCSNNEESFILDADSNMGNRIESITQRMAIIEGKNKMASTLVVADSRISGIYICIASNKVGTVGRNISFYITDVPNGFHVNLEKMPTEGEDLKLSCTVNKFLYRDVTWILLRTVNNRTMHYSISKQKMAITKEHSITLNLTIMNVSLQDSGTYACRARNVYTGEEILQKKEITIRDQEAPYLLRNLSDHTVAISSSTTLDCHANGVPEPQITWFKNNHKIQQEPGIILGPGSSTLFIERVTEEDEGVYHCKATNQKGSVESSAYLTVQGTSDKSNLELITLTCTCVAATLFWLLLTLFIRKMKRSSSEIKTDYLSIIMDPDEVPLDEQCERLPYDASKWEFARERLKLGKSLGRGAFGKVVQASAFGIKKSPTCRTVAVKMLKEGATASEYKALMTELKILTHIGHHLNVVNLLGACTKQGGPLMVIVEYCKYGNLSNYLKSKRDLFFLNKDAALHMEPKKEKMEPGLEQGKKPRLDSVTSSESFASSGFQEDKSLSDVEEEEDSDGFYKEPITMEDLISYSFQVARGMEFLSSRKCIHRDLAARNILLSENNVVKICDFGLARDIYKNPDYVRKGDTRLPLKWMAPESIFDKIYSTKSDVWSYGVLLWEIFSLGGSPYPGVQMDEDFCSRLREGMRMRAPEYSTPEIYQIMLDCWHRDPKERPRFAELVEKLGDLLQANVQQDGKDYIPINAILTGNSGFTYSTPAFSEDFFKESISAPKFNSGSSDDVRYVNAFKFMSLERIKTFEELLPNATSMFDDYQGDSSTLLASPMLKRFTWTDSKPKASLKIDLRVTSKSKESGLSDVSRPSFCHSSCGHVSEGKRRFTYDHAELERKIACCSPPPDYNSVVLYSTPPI

HUVEC = test: Inhibition of VEGF165-induced cell migration in HUVEC at 100 uM after 6 hrs by wound healing assay; assay type: functional, cell-based; conditions: Homo sapiens

Structure (SMILES) | IC50 [1] [µM] | Activity (HUVEC)
CC(C)C[C@@H]1NC(=O)CNC(=O)[C@H](CCC(=O)O)NC(=O)[C@H](Cc2cc(=O)oc3cc(O)ccc23)NC(=O)[C@H](CCc2ccccc2)NC(=O)CC[C@@H](C(N)=O)NC(=O)[C@H](CCC(=O)O)NC1=O ([hPhe][X1]EGLEE-NH2; lactam N-7) | 19.3 | 
CC(C)C[C@@H]1NC(=O)CNC(=O)[C@H](CCC(=O)O)NC(=O)[C@H](CC(=O)O)NC(=O)[C@H](Cc2ccc(O)cc2)NC(=O)[C@H](Cc2ccc(O)cc2)NC(=O)CC[C@@H](C(N)=O)NC(=O)[C@H](CCC(=O)O)NC1=O (YYDEGLEE-NH2; lactam N-8) |  | Active
CC(C)C[C@@H]1NC(=O)CNC(=O)[C@H](CCC(=O)O)NC(=O)[C@H](Cc2cc(=O)oc3cc(O)ccc23)NC(=O)[C@H](CCc2ccccc2)NC(=O)CC[C@@H](CC(N)=O)NC(=O)[C@H](CCC(=O)O)NC1=O ([hPhe][X1]EGLE[β3hE]-NH2; lactam N-7) |  | Active
